Like-named read-outs stand apart in the source and are kept apart here.
Columns and labels:
[1] = PK study: plasma pharmacokinetics after oral administration of CA extract in normal and FD rats (UPLC-MS/MS); type: in vivo; settings: Sprague-Dawley, rat, oral CA extract (0.10 g/mL solution, 10 mL/kg); for AUC(0-inf) / AUC(0-t) / CL/F / Cmax / half-life: n = 6; for Tmax: n = 6, read-out: Tmax; for Vd/F: n = 6, read-out: Vz/F
Experimental: For PK experiments, an appropriate amount of the CA extract was weighed to prepare a 0.10 g/mL solution using physiological saline. Briefly, 12 SD rats were randomly assigned to normal and FD groups and were orally administered the prepared CA sample (10 mL/kg body weight). For assessment, 0.3 mL of blood was collected into heparinized tubes via the caudal vein before dosing and at 2, 5, 10, 15, 20, 30, and 45 min, and 1, 2, 4, 8, 12, 24, and 48 h after administration. Blood samples were then immediately centrifuged at 4,500 rpm for 15 min, and the obtained plasma samples were stored at −20°C until determination.
The PK parameters were analyzed using the non–compartment analysis using the WinNonLin 8.2 software (Phoenix, United States). All the data were expressed as mean ± standard deviation (SD). The normal and FD groups were compared using independent samples t–test in SPSS 22.0. Results with p values < 0.05 were considered statistically significant.

[2] = Stability of the four compounds in plasma samples (QC samples); settings: n = 5
Experimental: In a 1.5 mL EP tube, 100 μL of plasma sample was mixed with 10 µL 1% formic acid–water, 10 μL IS (0.2011 μg/mL), and 400 μL acetonitrile. The mixture was then vortexed for 5 min, followed by sonication for 10 min at 40 kHz and centrifugation at 14,000 rpm for 10 min. The supernatant obtained was transferred to another tube and evaporated to dryness under a nitrogen vacuum at 37°C. The residue obtained was reconstituted with 150 μL of the initial mobile phase, and the centrifugation process was repeated. The supernatant thus obtained was then used for further analysis.
Similarly, QC samples of three concentrations (low, medium, and high) were prepared.
The specificity of the method was evaluated by comparing the retention times of analytes and IS in the blank matrix, blank matrix spiked with the four analytes and IS, and the samples after oral administration of CA extract. Calibration curves were constructed by comparing the ratio of peak areas of the four analytes to that of IS versus the concentration of the four analytes. Calibration curves were fitted via linear weighted (1/X ^ 2 ) least–squares regression. The intra–and inter–day precision and accuracy were estimated by analyzing QC samples at different concentrations on the same day and three consecutive validation days, respectively. The extraction recovery was evaluated by determining the peak area of analytes in QC samples compared with that in extracted matrix samples. The relative standard deviation of the extraction recovery of analytes at each level was retained at ≤20.0%. The following parameters of stability were assessed: short–term stability (24 h at room temperature), processed sample stability (24 h at 4°C), freeze–thaw stability (3 cycles), and auto–sampler stability (6 h at room temperature). QC samples of different concentrations were used for stability analysis.

[3] = Stability of the four compounds in tissue homogenate samples (QC samples); settings: mean ± s, n = 5
Experimental: (§1) Additionally, stomach and small intestinal tissues were diluted three times to obtain a tissue homogenate. Then, 300 μL of this tissue homogenate was mixed with 30 μL 1% formic acid-water, 20 μL IS, and 1.2 mL acetonitrile. The mixture was then vortexed for 5 min, sonicated for 10 min, and then stored at −20°C for 30 min. Subsequently, the mixture was centrifuged at 14,000 rpm for 10 min. The supernatant obtained was then transferred to another tube and evaporated to dryness at 37°C under nitrogen. The dried residue was reconstituted with 200 μL of the 50% methanol–water, and the centrifugation process was repeated. The obtained supernatant was then used for further analysis.
The appropriate amount of the reference substance was accurately weighed and dissolved in an appropriate amount of methanol to obtain stock solutions. The concentrations of the resulting stock solution were 0.9996 mg/mL for baishouwu benzophenone, 0.9518 mg/mL for deacylmetaplexigenin, 1.3660 mg/mL for qingyangshengenin, and 0.9898 mg/mL for syringic acid. Accurate volumes of each stock solution were mixed to obtain working solution, which was then serially diluted with methanol to provide standard working solutions. Similarly, QC samples of three concentrations (low, medium, and high) were prepared. All solutions were stored at −20°C for later use.
The following parameters of stability were assessed: short–term stability (24 h at room temperature), processed sample stability (24 h at 4°C), freeze–thaw stability (3 cycles), and auto–sampler stability (6 h at room temperature). QC samples of different concentrations were used for stability analysis.

[4] = Tissue distribution study after oral administration of CA extract in normal and FD rats
Experimental: UPLC–MS/MS analysis was conducted using the ACQUITY UPLC system (Waters Corp., Milford, MA, United States) equipped with a Xevo–TQ mass spectrometer (Waters Corp., Milford, MA, United States) with an electrospray ionization (ESI) interface and triple quadrupole mass analyzer.
The ACQUITY UPLC® BEH C18 column (2.1 mm × 50 mm, 1.7 μm, Waters, United States) was used for separation and was maintained at 40°C. The mobile phase consisted of 0.1% formic acid in water (A) and 0.1% formic acid–acetonitrile (B) for PK study and 0.2% formic acid in water (A) and 0.2% formic acid–acetonitrile (B) for tissue distribution study. The mobile phase was eluted as a gradient, as follows: 0–0.5 min, 10% B; 0.5–3.0 min, 15% B; 3.0–3.2 min, 25% B; 3.2–4.0 min, 30% B; 4.0–4.5 min, 32% B; 4.5–6.0 min, 90% B; and 6.0 min, 10% B. The flow rate was set at 0.35 mL/min and the injection volume was 2 μL for the PK study and 1 μL for the tissue distribution study.
The four active components of CA were quantified using multiple reaction monitoring under negative ion mode. The following m/z transitions were chosen for quantification: baishouwu benzophenone 301.00→283.00, deacylmetaplexigenin 379.15→361.20, qingyangshengenin 499.20→137.00, syringic acid 197.20→181.95, and puerarin (internal standard, IS) 415.10→267.05. The collision energy was 15, 15, 35, 15, and 35 V, respectively ([Sun et al., 2022]). ESI mode was operated under the following conditions: capillary voltage, 1 kV; desolvation gas (N2), 1000 L/h; collision gas (Ar2), 150 L/h; desolvation temperature, 400°C; and source temperature, 120°C.
as §1
SD rats were randomly divided into normal and FD groups (n = 30 each) and orally administered 10 mL/kg of CA extract solution. The rats were sacrificed at 10, 30 min, 1, 2, and 4 h after administration (6 rats per time point). Subsequently, their heart, liver, spleen, lung, kidney, brain, small intestine, and stomach were removed. The tissue samples were then washed in saline solution and wiped with filter paper. Subsequently, all tissues were stored at −80°C until analysis.

[5] = high QC (nominal 1666.00 / 3172.53 / 569.17 / 206.21 ng·mL^-1)
[6] = low QC (nominal 52.06 / 49.57 / 8.89 / 1.61 ng·mL^-1)
[7] = medium QC (nominal 208.25 / 396.57 / 71.13 / 25.78 ng·mL^-1)
[8] = Brain homogenate, highest QC (ng·mL^-1): Baishouwu benzophenone 131.10, Syringic acid 320.04, Qingyangshengenin 62.12, Deacylmetaplexigenin 677.19
[9] = Brain homogenate, lowest QC (ng·mL^-1): Baishouwu benzophenone 3.34, Syringic acid 8.18, Qingyangshengenin 1.58, Deacylmetaplexigenin 17.26
[10] = Brain homogenate, middle QC (ng·mL^-1): Baishouwu benzophenone 20.88, Syringic acid 51.14, Qingyangshengenin 9.90, Deacylmetaplexigenin 107.87
[11] = Heart homogenate, highest QC (ng·mL^-1): Baishouwu benzophenone 111.56, Syringic acid 340.93, Qingyangshengenin 350.76, Deacylmetaplexigenin 1522.88
[12] = Heart homogenate, lowest QC (ng·mL^-1): Baishouwu benzophenone 2.66, Syringic acid 8.11, Qingyangshengenin 8.35, Deacylmetaplexigenin 36.24
[13] = Heart homogenate, middle QC (ng·mL^-1): Baishouwu benzophenone 18.96, Syringic acid 57.96, Qingyangshengenin 59.63, Deacylmetaplexigenin 258.89
[14] = Kidney homogenate, highest QC (ng·mL^-1): Baishouwu benzophenone 768.40, Syringic acid 1230.44, Qingyangshengenin 844.98, Deacylmetaplexigenin 2249.71
[15] = Kidney homogenate, lowest QC (ng·mL^-1): Baishouwu benzophenone 9.84, Syringic acid 15.75, Qingyangshengenin 10.82, Deacylmetaplexigenin 28.80
[16] = Kidney homogenate, middle QC (ng·mL^-1): Baishouwu benzophenone 81.96, Syringic acid 131.25, Qingyangshengenin 90.13, Deacylmetaplexigenin 239.97
[17] = Liver homogenate, highest QC (ng·mL^-1): Baishouwu benzophenone 313.75, Syringic acid 268.07, Qingyangshengenin 4484.13, Deacylmetaplexigenin 3093.35
[18] = Liver homogenate, lowest QC (ng·mL^-1): Baishouwu benzophenone 1.77, Syringic acid 22.34, Qingyangshengenin 25.26, Deacylmetaplexigenin 16.38
[19] = Lung homogenate, highest QC (ng·mL^-1): Baishouwu benzophenone 630.29, Syringic acid 662.80, Qingyangshengenin 385.86, Deacylmetaplexigenin 1513.71
[20] = Lung homogenate, lowest QC (ng·mL^-1): Baishouwu benzophenone 17.66, Syringic acid 18.57, Qingyangshengenin 10.81, Deacylmetaplexigenin 42.42
[21] = Lung homogenate, middle QC (ng·mL^-1): Baishouwu benzophenone 105.98, Syringic acid 111.44, Qingyangshengenin 64.88, Deacylmetaplexigenin 254.52
[22] = Small intestine homogenate, highest QC (ng·mL^-1): Baishouwu benzophenone 39.22, Syringic acid 773.28, Qingyangshengenin 1726.39, Deacylmetaplexigenin 1206.41
[23] = Small intestine homogenate, lowest QC (ng·mL^-1): Baishouwu benzophenone 0.46, Syringic acid 9.31, Qingyangshengenin 20.77, Deacylmetaplexigenin 14.52
[24] = Small intestine homogenate, middle QC (ng·mL^-1): Baishouwu benzophenone 4.97, Syringic acid 97.95, Qingyangshengenin 218.68, Deacylmetaplexigenin 152.81
[25] = Spleen homogenate, highest QC (ng·mL^-1): Baishouwu benzophenone 658.88, Syringic acid 752.66, Qingyangshengenin 418.52, Deacylmetaplexigenin 1979.74
[26] = Spleen homogenate, lowest QC (ng·mL^-1): Baishouwu benzophenone 10.98, Syringic acid 12.54, Qingyangshengenin 6.98, Deacylmetaplexigenin 33.00
[27] = Spleen homogenate, middle QC (ng·mL^-1): Baishouwu benzophenone 87.85, Syringic acid 100.35, Qingyangshengenin 55.80, Deacylmetaplexigenin 263.97
[28] = Stomach homogenate, highest QC (ng·mL^-1): Baishouwu benzophenone 47.06, Syringic acid 257.76, Qingyangshengenin 1285.45, Deacylmetaplexigenin 1665.65
[29] = Stomach homogenate, lowest QC (ng·mL^-1): Baishouwu benzophenone 0.63, Syringic acid 3.44, Qingyangshengenin 17.14, Deacylmetaplexigenin 22.21
[30] = Stomach homogenate, middle QC (ng·mL^-1): Baishouwu benzophenone 6.28, Syringic acid 34.37, Qingyangshengenin 171.39, Deacylmetaplexigenin 222.09

CC(=O)c1ccc(O)c(C(=O)c2c(O)ccc(O)c2C)c1O [Baishouwu benzophenone]
AUC(0-inf) ([1]; FD group rats): 11.1 µg·h/mL
AUC(0-t) ([1]; FD group rats): 9.82 ± 1.3 µg·h/mL
CL/F ([1]; FD group rats): 0.45 L/h/kg
Cmax ([1]; FD group rats): 5.22 ± 0.44 µg/mL
half-life ([1]; FD group rats): 11 ± 1.85 h
Tmax ([1]; FD group rats): 0.31 ± 0.06 h
Vd/F ([1]; FD group rats): 7.08 ± 1.07 L/kg
AUC(0-inf) ([1]; Normal group rats): 13.8 µg·h/mL
AUC(0-t) ([1]; Normal group rats): 12.8 µg·h/mL
CL/F ([1]; Normal group rats): 0.36 L/h/kg
Cmax ([1]; Normal group rats): 6 ± 0.592 µg/mL
half-life ([1]; Normal group rats): 9.14 ± 2.41 h
Tmax ([1]; Normal group rats): 0.26 ± 0.03 h
Vd/F ([1]; Normal group rats): 4.67 ± 0.88 L/kg
Measured concentration, 4°C for 24 h [2, 5]: 1594.23 ± 107.31 ng/mL
Measured concentration, Room temperature for 24 h [2, 5]: 1664.66 ± 169.47 ng/mL
Measured concentration, Three freeze-thaw cycles [2, 5]: 1684.19 ± 146.38 ng/mL
Measured concentration, 4°C for 24 h [2, 6]: 55.65 ± 4.01 ng/mL
Measured concentration, Three freeze-thaw cycles [2, 6]: 56.07 ± 5.75 ng/mL
Measured concentration, Room temperature for 24 h ([2]; low QC (nominal 52.06 / 49.57 / 8.89 / 1.61 ng·mL^-1 for baishouwu benzophenone / deacylmetaplexigenin / qingyangshengenin / syringic acid)): 55.67 ± 5.93 ng/mL
Measured concentration, 4°C for 24 h [2, 7]: 221.19 ± 11.60 ng/mL
Measured concentration, Room temperature for 24 h [2, 7]: 222.20 ± 17.55 ng/mL
Measured concentration, Three freeze-thaw cycles [2, 7]: 221.08 ± 17.98 ng/mL
Auto-sampler for 6 h Measured concentration [3, 8]: 120.63 ± 2.55 ng/mL
Three freeze-thaw cycles Measured concentration [3, 8]: 123.76 ± 3.01 ng/mL
Auto-sampler for 6 h Measured concentration [3, 9]: 3.08 ± 0.01 ng/mL
Three freeze-thaw cycles Measured concentration [3, 9]: 3.02 ± 0.04 ng/mL
Auto-sampler for 6 h Measured concentration [3, 10]: 19.76 ± 0.44 ng/mL
Three freeze-thaw cycles Measured concentration [3, 10]: 20.10 ± 0.34 ng/mL
Auto-sampler for 6 h Measured concentration [3, 11]: 117.44 ± 1.18 ng/mL
Three freeze-thaw cycles Measured concentration [3, 11]: 118.10 ± 1.89 ng/mL
Auto-sampler for 6 h Measured concentration [3, 12]: 2.59 ± 0.05 ng/mL
Three freeze-thaw cycles Measured concentration [3, 12]: 2.47 ± 0.03 ng/mL
Auto-sampler for 6 h Measured concentration [3, 13]: 19.82 ± 0.45 ng/mL
Three freeze-thaw cycles Measured concentration [3, 13]: 19.77 ± 0.41 ng/mL
Auto-sampler for 6 h Measured concentration [3, 14]: 750.99 ± 14.44 ng/mL
Three freeze-thaw cycles Measured concentration [3, 14]: 748.36 ± 12.9 ng/mL
Auto-sampler for 6 h Measured concentration [3, 15]: 9.74 ± 0.44 ng/mL
Three freeze-thaw cycles Measured concentration [3, 15]: 9.58 ± 0.63 ng/mL
Auto-sampler for 6 h Measured concentration [3, 16]: 88.88 ± 5.31 ng/mL
Three freeze-thaw cycles Measured concentration [3, 16]: 87.75 ± 5.24 ng/mL
Auto-sampler for 6 h Measured concentration [3, 17]: 305.22 ± 17.58 ng/mL
Three freeze-thaw cycles Measured concentration [3, 17]: 303.56 ± 16.64 ng/mL
Auto-sampler for 6 h Measured concentration [3, 18]: 1.80 ± 0.19 ng/mL
Three freeze-thaw cycles Measured concentration [3, 18]: 1.86 ± 0.05 ng/mL
Three freeze-thaw cycles Measured concentration ([3]; Liver homogenate, middle QC (ng·mL^-1): Baishouwu benzophenone 27.19, Syringic acid 89.35, Qingyangshengenin 386.62, Deacylmetaplexigenin 268.09): 26.80 ± 1.81 ng/mL
Auto-sampler for 6 h Measured concentration [3, 19]: 717.67 ± 14.53 ng/mL
Three freeze-thaw cycles Measured concentration [3, 19]: 716.31 ± 12.93 ng/mL
Auto-sampler for 6 h Measured concentration [3, 20]: 17.71 ± 1.84 ng/mL
Three freeze-thaw cycles Measured concentration [3, 20]: 17.55 ± 2.16 ng/mL
Auto-sampler for 6 h Measured concentration [3, 21]: 107.37 ± 5.82 ng/mL
Three freeze-thaw cycles Measured concentration [3, 21]: 105.63 ± 6.43 ng/mL
Auto-sampler for 6 h Measured concentration [3, 22]: 38.84 ± 3.48 ng/mL
Three freeze-thaw cycles Measured concentration [3, 22]: 38.30 ± 3.03 ng/mL
Auto-sampler for 6 h Measured concentration [3, 23]: 0.48 ± 0.05 ng/mL
Three freeze-thaw cycles Measured concentration [3, 23]: 0.46 ± 0.04 ng/mL
Auto-sampler for 6 h Measured concentration [3, 24]: 4.71 ± 0.14 ng/mL
Three freeze-thaw cycles Measured concentration [3, 24]: 4.66 ± 0.10 ng/mL
Auto-sampler for 6 h Measured concentration [3, 25]: 684.55 ± 31.57 ng/mL
Three freeze-thaw cycles Measured concentration [3, 25]: 677.57 ± 32.24 ng/mL
Auto-sampler for 6 h Measured concentration [3, 26]: 11.24 ± 0.63 ng/mL
Three freeze-thaw cycles Measured concentration [3, 26]: 11.40 ± 0.76 ng/mL
Auto-sampler for 6 h Measured concentration [3, 27]: 80.95 ± 2.54 ng/mL
Three freeze-thaw cycles Measured concentration [3, 27]: 79.35 ± 1.81 ng/mL
Auto-sampler for 6 h Measured concentration [3, 28]: 43.94 ± 1.72 ng/mL
Three freeze-thaw cycles Measured concentration [3, 28]: 44.41 ± 1.38 ng/mL
Auto-sampler for 6 h Measured concentration [3, 29]: 0.57 ± 0.05 ng/mL
Three freeze-thaw cycles Measured concentration [3, 29]: 0.58 ± 0.07 ng/mL
Auto-sampler for 6 h Measured concentration [3, 30]: 6.13 ± 0.11 ng/mL
Three freeze-thaw cycles Measured concentration [3, 30]: 6.22 ± 0.15 ng/mL
tissue with the highest concentration ([4]; FD group): lungs
crossing of the blood-brain barrier ([4]; distribution found in rat brain): could cross the blood-brain barrier
time after oral administration at which almost completely metabolized in tissues ([4]; rat tissues): 4 h
time of peak in most of organ tissues ([4]; rat tissues): 0.17 to 0.5 h

Reference: article PMC10616469, “Pharmacokinetics and tissue distribution of four major bioactive components of Cynanchum auriculatum extract: a UPLC–MS/MS study in normal and functional dyspepsia rats” (Frontiers in Pharmacology, 2023)
